{"source": "patent US7825093B2", "about": "(priority 2006, dated 2010)", "key": {"human PBMCs [1]": {"tested_on": "human PBMCs", "type": "cell-based"}, "human PBMCs [2]": {"tested_on": "human PBMCs", "type": "cell-based", "remark": "listed apart in the source"}, "human PBMCs [3]": {"tested_on": "human PBMCs", "type": "cell-based", "remark": "listed apart in the source"}, "[4]": {"target": "HEK 293 cells overexpressing human Kv1.3 (Homo sapiens, UniProt P22001)", "sequence (P22001 whole entry)": "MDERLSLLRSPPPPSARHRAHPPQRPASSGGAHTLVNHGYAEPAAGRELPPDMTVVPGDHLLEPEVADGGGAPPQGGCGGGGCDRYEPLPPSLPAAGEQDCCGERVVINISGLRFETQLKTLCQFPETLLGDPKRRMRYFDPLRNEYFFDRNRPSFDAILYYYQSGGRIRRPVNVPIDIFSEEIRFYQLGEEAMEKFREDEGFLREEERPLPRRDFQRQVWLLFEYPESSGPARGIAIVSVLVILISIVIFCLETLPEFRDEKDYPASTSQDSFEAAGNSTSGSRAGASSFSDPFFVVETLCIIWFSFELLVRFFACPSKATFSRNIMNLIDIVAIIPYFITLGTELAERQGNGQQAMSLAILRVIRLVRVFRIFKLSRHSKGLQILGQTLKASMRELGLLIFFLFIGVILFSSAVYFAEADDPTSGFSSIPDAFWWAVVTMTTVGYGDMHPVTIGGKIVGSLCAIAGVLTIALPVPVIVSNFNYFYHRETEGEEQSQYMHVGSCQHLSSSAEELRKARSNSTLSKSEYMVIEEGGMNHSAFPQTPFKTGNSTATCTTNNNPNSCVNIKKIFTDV", "assay": "Immunohistochemistry analysis of binding to HEK 293 cells overexpressing human Kv1.3", "settings": "5 μg/ml", "experimental": "Immunohistochemistry analysis of Fc-L10-ShK[1-35] binding to HEK 293 cells overexpressing human Kv1.3. HEK 293 cells overexpressing human Kv1.3 (HEK Kv1.3) were obtained from BioFocus plc (Cambridge, UK) and maintained per manufacturer's recommendation. The parental HEK 293 cell line was used as a control. Cells were plated on Poly-D-Lysine 24 well plates (#35-4414; Becton-Dickinson, Bedford, Mass.) and allowed to grow to approximately 70% confluence. HEK KV1.3 were plated at 0.5×10e5 cells/well in 1 ml/well of medium. HEK 293 cells were plated at a density of 1.5×10e5 cells/well in 1 ml/well of medium. Before staining, cells were fixed with formalin (Sigma HT50-1-1 Formalin solution, diluted 1:1 with PBS/0.5% BSA before use) by removing cell growth medium, adding 0.2 ml/well formalin solution and incubating at room temperature for ten minutes. Cells were stained by incubating with 0.2 ml/well of 5 μg/ml Fc-L10-ShK[1-35] in PBS/BSA for 30′ at room temperature. Fc-L10-ShK[1-35] was aspirated and then the cells were washed one time with PBS/0.5% BSA. Detection antibody (Goat F(ab)2 anti-human IgG-phycoerythrin; Southern Biotech Associates, Birmingham, Ala.) was added to the wells at 5 μg/ml in PBS/0.5% BSA and incubated for 30′ at room temperature. Wash cells once with PBS/0.5% BSA and examine using confocal microscopy (LSM 510 Meta Confocal Microscope; Carl Zeiss AG, Germany). […]"}, "[5]": {"tested_on": "IL-2R on T cells in human whole blood", "type": "cell-based"}, "[6]": {"target": "Kv1.3 transfected HEK 293 cells (Homo sapiens, UniProt P22001)", "sequence (P22001 whole entry)": "as above", "assay": "Whole cell immunoassay (ELISA) on fixed HEK 293 cells overexpressing Kv1.3", "type": "binding", "experimental": "Our peptibody reagent can be a useful and convenient tool for monitoring Kv1.3 channel expression in patients and have utility in diagnostic applications. The procedure shown in FIG. 34A and FIG. 34B follows.\nFIG. 34A. A whole cell immunoassay was performed to show binding of intact Fc-L10-ShK[1-35] to Kv1.3 transfected HEK 293 cells (BioFocus plc, Cambridge, UK). Parent HEK 293 cells or HEK Kv1.3 cells were plated at 3×10e4 cells/well in poly-D-Lysine coated ninety-six well plates (#35-4461; Becton-Dickinson, Bedford, Mass.). Cells were fixed with formalin (Sigma HT50-1-1 Formalin solution, diluted 1:1 with PBS/0.5% BSA before use) by removing cell growth medium, adding 0.2 ml/well formalin solution and incubating at room temperature for 25 minutes and then washing one time with 100 μl/well of PBS/0.5% BSA. Wells were blocked by addition of 0.3 ml/well of BSA blocker (50-61-00; KPL 10% BSA Diluent/Blocking Solution, diluted 1:1 with PBS; KPL, Gaithersburg, Md.) followed by incubation at room temperature, with shaking, for 3 hr. Plates were washed 2 times with 1×KP Wash Buffer (50-63-00; KPL). […] Absorbance was read at 450 nm on a Molecular Devices SpectroMax 340 (Sunnyvale, Calif.).\nFIG. 34B. […] Absorbances were read at 405 nm after stopping reactions by addition of 0.1 ml/well of 1% SDS."}, "[7]": {"tested_on": "CD40L on T cells in human whole blood", "type": "cell-based"}, "human Kv1.3 channel": {"target": "human Kv1.3 channel (Homo sapiens, UniProt P22001)", "sequence (P22001 whole entry)": "as above", "type": "cell-based"}, "AT-EAE model": {"tested_on": "AT-EAE model", "set-up": "species or system Lewis rats", "settings": "rat, in vivo, sc"}, "[8]": {"tested_on": "IL-2 production in human whole blood"}, "[9]": {"tested_on": "IFN-g production in human whole blood", "type": "cell-based"}, "[10]": {"settings": "rat, in vivo, iv"}}, "note": "Entries after “also recorded” stand apart in the source; their conditions may differ."}
{"compound": "Fc-L10-ShK[1-35]: Fc region of human IgG1 fused via L10 linker to Kv1.3 inhibitor peptide ShK[1-35]", "values": [{"measurement": "inhibition of IFNγ production", "setting": "human PBMCs [1]", "value": "complete inhibition of the response"}, {"measurement": "inhibition of T cell proliferation", "setting": "human PBMCs [2]", "value": "blocked T cell proliferation; also recorded: potently inhibits proliferation of T cells in a dose-dependent manner"}, {"measurement": "inhibition of IFNg production", "setting": "human PBMCs [3]", "value": "nearly complete inhibition"}, {"measurement": "staining of HEK 293 cells stably transfected with human Kv1.3", "setting": "[4]", "value": "stains HEK 293 cells stably transfected with human Kv1.3"}, {"measurement": "thapsigargin-induced upregulation of the IL-2R on T cells (in words)", "setting": "[5]", "value": "suppressed"}, {"measurement": "binding to fixed cells that overexpress Kv1.3", "setting": "[6]", "value": "dose-dependent increase in response; also recorded: high affinity binding to its target"}, {"measurement": "thapsigargin-induced upregulation of CD40L on T cells (in words)", "setting": "[7]", "value": "suppressed"}]}
{"compound": "CC[C@H](C)[C@@H]1NC(=O)[C@@H](NC(=O)[C@H](CO)NC(=O)[C@@H](N)CCCNC(=N)N)CSSC[C@@H](C(=O)O)NC(=O)[C@H]([C@@H](C)O)NC(=O)CNC(=O)[C@@H]2CSSC[C@@H]3NC(=O)[C@H](CCC(N)=O)NC(=O)[C@H](Cc4ccccc4)NC(=O)[C@H](C)NC(=O)[C@H]([C@@H](C)O)NC(=O)[C@H](CSSC[C@H](NC(=O)[C@H](Cc4ccccc4)NC(=O)[C@H](CO)NC(=O)[C@H](CC(C)C)NC(=O)[C@H](CCCNC(=N)N)NC(=O)[C@H](Cc4ccc(O)cc4)NC(=O)[C@H](CCCCN)NC(=O)[C@H](CCSC)NC(=O)[C@H](CO)NC(=O)[C@H](Cc4cnc[nH]4)NC(=O)[C@H](CCCCN)NC3=O)C(=O)N[C@@H](CCCNC(=N)N)C(=O)N[C@@H](CCCCN)C(=O)N[C@@H]([C@@H](C)O)C(=O)N2)NC(=O)[C@H](CCCNC(=N)N)NC(=O)[C@H](CO)NC(=O)[C@H](CCCCN)NC(=O)[C@@H]2CCCN2C(=O)[C@H]([C@@H](C)CC)NC(=O)[C@H]([C@@H](C)O)NC(=O)[C@H](CC(=O)O)NC1=O", "note": "[ShK, reference compound]", "values": [{"measurement": "inhibition of IFNγ production", "setting": "human PBMCs [1]", "value": "only a partial inhibition"}, {"measurement": "inhibition of IFNg production", "setting": "human PBMCs [3]", "value": "only partial inhibition"}, {"measurement": "block of human Kv1.3 current (in words)", "setting": "human Kv1.3 channel", "value": "potently block Kv1.3"}, {"measurement": "average body weight lost", "setting": "AT-EAE model", "value": 30, "unit": "g"}, {"measurement": "disease severity and survival (in words)", "setting": "AT-EAE model", "value": "developed severe disease and died"}, {"measurement": "onset of disease", "setting": "AT-EAE model", "value": 4, "unit": "days"}, {"measurement": "thapsigargin-induced IL-2 production (in words)", "setting": "[8]", "value": "suppressed"}, {"measurement": "thapsigargin-induced IFN-g production (in words)", "setting": "[9]", "value": "suppressed"}, {"measurement": "thapsigargin-induced upregulation of the IL-2R on T cells (in words)", "setting": "[5]", "value": "suppressed"}, {"measurement": "time with significant suppression of Kv1.3 current (<70 POC) by 5% serum Test solutions", "setting": "[10]", "value": "≤ 1", "unit": "h"}, {"measurement": "thapsigargin-induced upregulation of CD40L on T cells (in words)", "setting": "[7]", "value": "suppressed"}]}
